Assay results taken from patent US11999739B2, “Antimicrobials methods of making and using the same” (BIOVERSYS AG, priority 2016, dated 2024).

Assays:
[1] = tested on: Staphylococcus aureus (S. aureus) 11540 strain; assay: Standard microdilution MIC assay, S. aureus; type: cell-based
Protocol: (§1) The in vitro activity of the compounds of the present disclosure can be determined. Antimicrobial testing is typically performed to determine the minimum inhibitory concentration (MIC). Minimum inhibitory concentrations (MICs) are determined by the microdilution method in a final volume of 100 μl according to protocols outlined by The Clinical and Laboratory Standards Institute (CLSI). Performance standards for reference strains are assessed within the same experimental design to maintain quality control. See, for example, Clinical Laboratory Standards Institute: Methods for dilution antimicrobial susceptibility tests for bacteria that grow aerobically M7-A8. Approved Standard-Eighth Edition. Wayne, PA: CLSI; December 2008; and Clinical Laboratory Standards Institute: Performance Standards for Antimicrobial Susceptibility Testing M100-S20; Approved Standard-Twentieth Edition. Wayne, PA: CLSI; June 2010.
(§2) The compounds of the present disclosure were tested for antimicrobial activity. The Compounds 1-293 were run against Escherichia coli (E co/i) strain ATCC25922 and against Staphylococcus aureus (S. aureus) 11540 strain using a standard microdilution assay to determine minimum inhibitory concentrations (MICs). […] It will be recognized by one skilled in the art that the compounds can be assessed against other bacterial organisms and that the presentation of data for activity against Escherichia coli and Staphylococcus aureus are illustrative and in no way is intended to limit the scope of the present disclosure. The compounds of the present disclosure can be assayed against a range of other microorganisms depending upon the performance activity desired to be gathered. Furthermore, the “+” and “−” representation and the selection of a cutoff value of 16 micrograms/mL is also illustrative and in no way is intended to limit the scope of the present disclosure.

[2] = tested on: Escherichia coli strain ATCC25922; assay: Standard microdilution MIC assay, E. coli; type: cell-based
Protocol: as §1, §2

MIC [1] [µg/mL]	MIC [2] [µg/mL]	SMILES
≤ 16	≤ 16	CSc1cc(-n2cc3cc(-c4cc(CCC[C@@H](N)C5CC5)cc(OC(F)(F)F)c4F)[nH]c3nc2=O)cc(F)c1[C@@H]1CCC[C@@H](CCNC(C)=N)N1 [Compound 242]
≤ 16	≤ 16	CC(=N)NCC[C@@H]1CCC[C@@H](c2ccc(-n3cc4cc(-c5cc(CCC[C@@H](N)CF)cc(C(F)(F)F)c5F)[nH]c4nc3=O)cc2OC(F)(F)F)N1 [Compound 225]
≤ 16	≤ 16	CC(=N)NCC[C@H]1CNC[C@@H](c2ccc(-n3cc4cc(-c5cc(CCC[C@H](C)N)cc(Cl)c5F)[nH]c4nc3=O)cc2)O1 [Compound 4]
≤ 16	≤ 16	COC[C@H](N)CCCc1cc(OC(F)(F)F)c(F)c(-c2cc3cn(-c4ccc([C@@H]5CCC[C@@H](CCNC(C)=N)N5)c(C)c4)c(=O)nc3[nH]2)c1 [Compound 238]
≤ 16	≤ 16	CC(=N)NCC[C@H](CO)NCc1ccc(-n2cc3cc(-c4cc(CCCC5(N)CC5)cc(Cl)c4F)[nH]c3nc2=O)cc1 [Compound 153]
≤ 16	≤ 16	C=C[C@@H](CCNC(C)=N)NCc1ccc(-n2cc3cc(-c4cc(CCC[C@@H](N)CC#N)cc(Cl)c4F)[nH]c3nc2=O)cc1 [Compound 155]
≤ 16	≤ 16	CC(=N)NCC[C@@H]1CCC[C@@H](c2ccc(-n3cc4cc(-c5cc(CCCC6(N)CC6)cc(Cl)c5F)[nH]c4nc3=O)cc2F)N1 [Compound 169]
≤ 16	≤ 16	COC[C@H](N)CCCc1cc(-c2cc3cn(-c4ccc([C@@H]5CCC[C@@H](CCNC(C)=N)N5)c(OC(F)(F)F)c4)c(=O)nc3[nH]2)cc(C(F)(F)F)c1 [Compound 214]
≤ 16	≤ 16	C=C[C@H](N)CCCc1cc(Cl)c(F)c(-c2cc3cn(-c4ccc([C@H](C)NCCCNC(C)=N)c(F)c4)c(=O)nc3[nH]2)c1 [Compound 111]
≤ 16	≤ 16	N=C(CF)NCC[C@@H]1CCC[C@@H](c2ccc(-n3cc4cc(-c5cc(CCC[C@@H](N)C(F)(F)F)cc(Cl)c5F)[nH]c4nc3=O)cc2)N1 [Compound 64]
≤ 16	≤ 16	C=C[C@H](N)CCCc1cc(Cl)c(F)c(-c2cc3cn(-c4cc(F)c([C@@H]5CCC[C@@H](CCNC(C)=N)N5)c(SC)c4)c(=O)nc3[nH]2)c1 [Compound 274]
≤ 16	≤ 16	CC(=N)NCC[C@@H]1CCC[C@@H](c2ccc(-n3cc4cc(-c5cc(CCC[C@H](C)N)cc(C(F)(F)F)c5)[nH]c4nc3=O)cc2F)N1CCCF [Compound 328]
≤ 16	≤ 16	N=C(CF)NCC[C@@H]1COC[C@@H](c2ccc(-n3cc4cc(-c5cc(CCC[C@@H](N)CO)cc(Cl)c5F)[nH]c4nc3=O)cc2)N1 [Compound 55]
≤ 16	≤ 16	CC(=N)NCC[C@@H]1CCC[C@@H](c2ccc(-n3cc4cc(-c5cc(CCC[C@@H](N)C6CC6)cc(Cl)c5F)[nH]c4nc3=O)cc2S(C)(=O)=O)N1 [Compound 273]
≤ 16	≤ 16	C=C[C@@H](N)CCCc1cc(Cl)c(F)c(-c2cc3cn(-c4ccc(C5(NCCCNC(C)=N)CC5)cc4)c(=O)nc3[nH]2)c1 [Compound 144]
≤ 16	≤ 16	C=C[C@@H](CCNC(=N)CSC)NCc1ccc(-n2cc3cc(-c4cc(CCC[C@H](C)N)cc(Cl)c4F)[nH]c3nc2=O)cc1 [Compound 59]
≤ 16	≤ 16	C=C[C@@H](CCNC(C)=N)N[C@@H](C)c1ccc(-n2cc3cc(-c4cc(CCC[C@@H](N)CF)cc(Cl)c4F)[nH]c3nc2=O)cc1 [Compound 150]
≤ 16	≤ 16	C=C[C@H](N)CCCc1cc(-c2cc3cn(-c4cc(F)c([C@@H]5CCC[C@@H](CCNC(C)=N)N5CCCF)c(SC)c4)c(=O)nc3[nH]2)cc(C(F)(F)F)c1 [Compound 351]
≤ 16	≤ 16	CSc1cc(-n2cc3cc(-c4cc(CCC[C@@H](N)CO)cc(Cl)c4F)[nH]c3nc2=O)ccc1[C@@H]1CCC[C@@H](CCNC(C)=N)N1 [Compound 116]
≤ 16	≤ 16	CC(=N)NCC[C@@H]1CCC[C@@H](c2ccc(-n3cc4cc(-c5cc(CCC(C)(C)CN)cc(Cl)c5F)[nH]c4nc3=O)cc2)N1 [Compound 24]
≤ 16	≤ 16	CC(=N)NCC[C@@H]1CCC[C@@H](c2ccc(-n3cc4cc(-c5cc(CCC[C@@H](N)C(F)(F)F)cc(Cl)c5F)[nH]c4nc3=O)cc2)N1 [Compound 63]
≤ 16	≤ 16	C=C[C@@H](N)CCCc1cc(Cl)c(F)c(-c2cc3cn(-c4ccc(CN[C@@H](CO)CCNC(C)=N)cc4)c(=O)nc3[nH]2)c1 [Compound 39]

MIC [1] [µg/mL]	MIC [2] [µg/mL]	SMILES
≤ 16	≤ 16	CSc1cc(-n2cc3cc(-c4cc(CCC(F)(F)CN)cc(Cl)c4F)[nH]c3nc2=O)ccc1[C@@H]1CCC[C@@H](CCNC(C)=N)N1 [Compound 129]
≤ 16	≤ 16	CC(=N)NCC[C@@H]1CCC[C@@H](c2ccc(-n3cc4cc(-c5cc(CCC[C@@H](N)CO)cc(Cl)c5F)[nH]c4nc3=O)cc2)N1C [Compound 121]
≤ 16	≤ 16	CC(=N)NCC[C@@H]1CCC[C@@H](c2ccc(-n3cc4cc(-c5cc(CCC[C@H](C)N)cc(Cl)c5F)[nH]c4nc3=O)cc2)N1C[C@H](C)CO [Compound 366]
≤ 16	≤ 16	C=C[C@@H](N)CCCc1cc(Cl)c(F)c(-c2cc3cn(-c4ccc(CN[C@@H](C=C)CCNC(=N)CF)cc4)c(=O)nc3[nH]2)c1 [Compound 37]
≤ 16	≤ 16	CSCC(=N)NCC[C@H](CO)NCc1ccc(-n2cc3cc(-c4cc(CCC[C@H](C)N)cc(Cl)c4F)[nH]c3nc2=O)cc1 [Compound 41]
≤ 16	≤ 16	CSc1cc(-n2cc3cc(-c4cc(CCC[C@@H](N)CF)cc(C(F)(F)F)c4F)[nH]c3nc2=O)ccc1[C@@H]1CCC[C@@H](CCNC(C)=N)N1 [Compound 255]
≤ 16	≤ 16	CC(=N)NCC[C@@H]1CCC[C@@H](c2ccc(-n3cc4cc(-c5cc(CCC[C@H](C)N)cc(Cl)c5F)[nH]c4nc3=O)cc2)N1C[C@@H](C)CO [Compound 365]
≤ 16	≤ 16	CC(=N)NCCCN[C@H](C)c1ccc(-n2cc3cc(-c4cc(CCC[C@H](C)N)cc(Cl)c4F)[nH]c3nc2=O)cc1F [Compound 112]
≤ 16	≤ 16	CN1[C@H](CCNC(=N)CF)CCC[C@H]1c1ccc(-n2cc3cc(-c4cc(CCC[C@@H](N)CO)cc(Cl)c4F)[nH]c3nc2=O)cc1 [Compound 122]
≤ 16	≤ 16	C=C[C@@H](CCNC(=N)CF)NCc1ccc(-n2cc3cc(-c4cc(CCC[C@@H](N)C(F)(F)F)cc(Cl)c4F)[nH]c3nc2=O)cc1 [Compound 43]
≤ 16	≤ 16	CC(=N)NCC[C@@H]1CCC[C@@H](c2ccc(-n3cc4cc(-c5cc(CCC[C@@H](N)CS(C)(=O)=O)cc(Cl)c5F)[nH]c4nc3=O)cc2)N1 [Compound 284]
≤ 16	≤ 16	CC(=N)NCC[C@@H]1CCC[C@@H](c2ccc(-n3cc4cc(-c5cc(CCC[C@@H]6COCC(=O)N6)cc(Cl)c5F)[nH]c4nc3=O)cc2)N1 [Compound 227]
≤ 16	≤ 16	CC(=N)NCC[C@@H]1CCC[C@@H](c2ccc(-n3cc4cc(-c5cc(CCC[C@H](C)N)cc(Cl)c5F)[nH]c4nc3=O)cc2)N1CCn1ccnc1C [Compound 263]
≤ 16	≤ 16	COC[C@H](N)CCCc1cc(OC(F)(F)F)c(F)c(-c2cc3cn(-c4ccc([C@@H]5CCC[C@@H](CCNC(C)=N)N5)c(SC)c4)c(=O)nc3[nH]2)c1 [Compound 198]
≤ 16	≤ 16	C=C[C@@H](N)CCCc1cc(Cl)c(F)c(-c2cc3cn(-c4ccc([C@@H]5COC[C@@H](CCNC(C)=N)N5)cc4)c(=O)nc3[nH]2)c1 [Compound 56]
≤ 16	≤ 16	C=C[C@@H](CCNC(C)=N)NCc1ccc(-n2cc3cc(-c4cc(CCCC5(N)CC5)cc(Cl)c4F)[nH]c3nc2=O)cc1 [Compound 146]
≤ 16	≤ 16	CC(=N)NCC[C@@H]1CCC[C@@H](c2ccc(-n3cc4cc(-c5cc(CCC[C@@H](N)C6CC6)cc(OC(F)(F)F)c5F)[nH]c4nc3=O)cc2)N1 [Compound 207]
≤ 16	≤ 16	C[C@H](N)CCCc1cc(Cl)c(F)c(-c2cc3cn(-c4ccc(CN[C@@H](CO)CCNC(=N)CF)cc4)c(=O)nc3[nH]2)c1 [Compound 61]
≤ 16	≤ 16	CSc1cc(-n2cc3cc(-c4cc(CCC[C@@H](N)C5CC5)cc(C(F)(F)F)c4F)[nH]c3nc2=O)ccc1[C@@H]1CCC[C@@H](CCNC(C)=N)N1 [Compound 251]
≤ 16	≤ 16	C=C[C@@H](N)CCCc1cc(Cl)c(F)c(-c2cc3cn(-c4ccc(CN[C@@H](C=C)CCNC(C)=N)cc4)c(=O)nc3[nH]2)c1 [Compound 30]
≤ 16	≤ 16	CSc1cc(-n2cc3cc(-c4cc(CCC[C@@H](N)C5CC5)cc(Cl)c4F)[nH]c3nc2=O)ccc1[C@@H]1CCC[C@@H](CCNC(C)=N)N1CCCF [Compound 333]
